Legend:
[1] = test system: gamma amino butyric acid (GABA) metabolism; conditions: An, et al (2003); cited from earlier work
SH-SY5Y cells = experiment: SA-β-gal staining of senescence SH-SY5Y cells; assay type: cell-based; conditions: senescence SH-SY5Y cells treated for 24 hours
Procedure: SH-SY5Y cells (purchased from Taiwan and Bioresource Collection and Research Center (BCRC), 08C0066) was cultured in DMEM containing 10% fetal bovine serum, 100 U/ml penicillin and 100 µg/ml streptomycin in a carbon dioxide incubator. When SH-SY5Y cells were grown in a 100 mm culture dish to a fullness of 80%, subculture was carried out. […] Thus, the intracellular amount of SA-β-gal in the test cells were used as an indicator of cell senescence. These senescence cells were then used to perform the following aging-related cell experiments.
The senescence SH-SY5Y cells in embodiment 3 were treated with the G. elata crude extract TM1, the G. elata extract TM1-2 and N^6-(4-hydroxybenzyl) adenosine (T1-11) for 24 hours, then fixed with 4% formaldehyde, following by staining with SA-β-gal to evaluate the cell senescence level. […] Furthermore, the mechanism of cell senescence is currently known to be driven by two independent pathways, p53-p21 pathway and p16-Rb pathway. Both p21 and p16 are cyclin-dependent kinase inhibitors (CDKI), which prevent Rb from being phosphorylated so as to inhibit Rb. Consequently, the activity of E2F transcription factors is inhibited and the cell cycle is therefore blocked. p53, p63 and p73 can directly induce the activation of p21 protein, leading to arrest in cell cycle and cellular senescence.

[2] = test system: p53, p16, p21 protein expression; experiment: Cellular senescence related molecules (p53, p16, p21) in SH-SY5Y cells; assay type: cell-based
[3] = test system: D-galactose-induced aging mice; experiment: Nesting test and burrowing test in D-galactose-induced aging mice; assay type: in vivo; conditions: D-galactose 0.2 g/kg s.c.; test substance oral gavage once a day for 6 weeks
Procedure: (§1) A total of nine groups with 6 each animal experiments were conducted. The animals in groups 1-9 were: 1: blank control group, 2: D-galactose (0.2 g/kg), 3: D-galactose (0.2 g/kg)+vitamin E (100 mg/kg), 4: D-galactose (0.2 g/kg)+TM1-2 low dose (5 mg/kg), 5: D-galactose (0.2 g kg)+TM1-2 mid-dose group (20 mg/kg), 6: D-galactose (0.2 g/kg)+TM1-2 high dose group (50 mg/kg), 7: D-galactose (0.2 g/kg)+T1-11 low dose group (1 mg/Kg), 8: D-galactose (0.2 g/kg)+T1-11 high dose group (10 mg/kg), 9: T1-11 (10 mg/kg). D-galactose was treated by subcutaneous injection (0.2 g/kg body weight), and G. elata extract TM1-2, T1-11 and vitamin E were orally administrated (oral gavage). The test substances were treated once a day, continuing for 6 weeks. When administering, in addition to the blank control group, each group was continued to treat with 0.2 g/kg (body weight) D-galactose subcutaneously injected via back neck, and the blank control group was subcutaneously injected with physiological saline. […]
In the Nesting Test (Deacon R (2012), Deacon RM (2006)), mice were given nesting materials, and they made nests in the corners of the cage and stayed in the nest. By using the nature of mouse nesting, nest cotton swabs were given, the scores of completing nesting were calculated, and the weight of the remaining unbroken cotton was weighed to assess the degree of mouse aging (FIGS. 5A and 5B). […]

[4] = test system: D-galactose-induced aging mice; experiment: Morris water maze test in D-galactose-induced aging mice; assay type: in vivo; conditions: D-galactose 0.2 g/kg s.c.; test substance oral gavage once a day for 6 weeks
Procedure: (§2) A total of nine groups with 6 each animal experiments were conducted. The animals in groups 1-9 were: 1: blank control group, 2: D-galactose (0.2 g/kg), 3: D-galactose (0.2 g/kg)+vitamin E (100 mg/kg), 4: D-galactose (0.2 g/kg)+TM1-2 low dose (5 mg/kg), 5: D-galactose (0.2 g kg)+TM1-2 mid-dose group (20 mg/kg), 6: D-galactose (0.2 g/kg)+TM1-2 high dose group (50 mg/kg), 7: D-galactose (0.2 g/kg)+T1-11 low dose group (1 mg/Kg), 8: D-galactose (0.2 g/kg)+T1-11 high dose group (10 mg/kg), 9: T1-11 (10 mg/kg). D-galactose was treated by subcutaneous injection (0.2 g/kg body weight), and G. elata extract TM1-2, T1-11 and vitamin E were orally administrated (oral gavage). The test substances were treated once a day, continuing for 6 weeks. When administering, in addition to the blank control group, each group was continued to treat with 0.2 g/kg (body weight) D-galactose subcutaneously injected via back neck, and the blank control group was subcutaneously injected with physiological saline. The vitamin E group was used as a positive control group.
Furthermore, the memory learning ability of mice was evaluated using the Morris water maze test (Vorhees C V, et al. (2006)) (FIG. 7A and FIG. 7B).

catalase (CAT) = experiment: Catalase activity in serum and brain tissue of D-galactose-treated animals; assay type: in vivo, mice; conditions: serum, cortex and hippocampus; galactose-induced animals
Procedure: as §2, with “group. After observing their behavior, the animals are intraperitoneally injected with […] 5-bromo-2′-deoxyuridine (BrdU) continuously for one week. Then the animals were sacrificed to take their brain tissue and blood. […]” for “group.”

[5] = test system: superoxide dismutase (SOD); experiment: Superoxide dismutase activity in serum and brain tissue of D-galactose-treated animals; assay type: in vivo, mice; conditions: serum, cortex and hippocampus; galactose-induced animals
Procedure: as §2, with “group. After observing their behavior, the animals are intraperitoneally injected with […] 5-bromo-2′-deoxyuridine (BrdU) continuously for one week. Then the animals were sacrificed to take their brain tissue and blood. […]” for “group.”

[6] = test system: lipid peroxidation (malondialdehyde, MDA); experiment: Lipid peroxidation in serum and brain tissue of D-galactose-treated animals; assay type: in vivo, mice; conditions: serum, cortex and hippocampus; galactose-induced animals
Procedure: as §2, with “group. After observing their behavior, the animals are intraperitoneally injected with […] 5-bromo-2′-deoxyuridine (BrdU) continuously for one week. Then the animals were sacrificed to take their brain tissue and blood. […]” for “group.”

[7] = test system: glutathione peroxidase (GSH-Px); experiment: Glutathione peroxidase in serum and brain tissue of D-galactose-treated animals; assay type: in vivo, mice; conditions: serum, cortex and hippocampus; galactose-induced animals
Procedure: as §2, with “group. After observing their behavior, the animals are intraperitoneally injected with […] 5-bromo-2′-deoxyuridine (BrdU) continuously for one week. Then the animals were sacrificed to take their brain tissue and blood. […]” for “group.”

[8] = test system: glucose-6-phosphate dehydrogenase (G6PD); experiment: Glucose-6-phosphate dehydrogenase in serum and brain tissue of D-galactose-treated animals; assay type: in vivo, mice; conditions: serum, cortex and hippocampus; galactose-induced animals
Procedure: as §2, with “group. After observing their behavior, the animals are intraperitoneally injected with […] 5-bromo-2′-deoxyuridine (BrdU) continuously for one week. Then the animals were sacrificed to take their brain tissue and blood. […]” for “group.”

[9] = test system: BrdU and DCX-expressing cells in the hippocampus; experiment: Neurogenesis markers BrdU and DCX in hippocampus of D-galactose-induced mice (immunostaining); assay type: in vivo
Procedure: as §1
After observing the behavior, the animals of Example 6 are intraperitoneally injected with […] 5-bromo-2′-deoxyuridine (BrdU) continuously for a week. […] The sections were immunohistochemically stained by first reacting with the first antibody, doublecortin (DCX) (purchased from Abcam) and then with a fluorescence-labeled secondary antibody (purchased from Jackson Labs Technologies, Inc). […]

SMILES	metabolism of GABA in gerbil hippocampus [1]	intracellular SA-β-gal (cell senescence level) (SH-SY5Y cells)	p53, p16, p21 protein expression [2]	cognitive behavioral deficit: construction of nests and burrowing [3]	cognitive behavioral deficit incl. memory learning ability; higher dose better improvement [4]	activity of catalase (CAT) (catalase (CAT))	activity of superoxide dismutase (SOD) [5]	lipid peroxidation (malondialdehyde, MDA) [6]	level of glutathione peroxidation (GSH-Px) reduced by galactose [7]	level of glucose-6-phosphate dehydrogenase (G6PD) reduced by galactose [8]	expression of BrdU in the hippocampus [9]	expression of DCX in the hippocampus [9]
OCc1ccc(O[C@@H]2O[C@H](CO)[C@@H](O)[C@H](O)[C@H]2O)cc1 [gastrodin]	alter the metabolism of gamma amino butyric acid (GABA)											
OC[C@H]1O[C@@H](n2cnc3c(NCc4ccc(O)cc4)ncnc32)[C@H](O)[C@@H]1O [T1-11, N^6-(4-hydroxybenzyl) adenosine]		significantly reduce SA-β-gal	inhibition of p53, p16, p21 protein expression	effectively ameliorate the animal cognitive behavioral deficit	ameliorate cognitive behavioral deficit	significantly repaired the reduced activity	significantly repaired the reduced activity	significantly repaired	effectively reversed	effectively reversed	ameliorate the reduced expression	ameliorate the reduced expression

— patent US20250352606A1, “Pharmaceutical Composition for Promoting Neurogenesis and Method of Utilizing Gastrodia Elata Extract or Adenosine Analog for Promoting Neurogenesis” (AXR Pharma Inc., priority 2019, published 2025)
